Measurements taken from patent EP0326331B1, “Substituted quinolines and cinnolines” (Dow AgroSciences LLC, priority 1988, dated 1989).
Read-outs that look alike come from different tables or passages of the source.

Columns and labels:
Format in all cases: in vivo
[1] = tested on: Twospotted spider mites (Tetranychus urticae Koch); test: Mite/insect screen, SM; conditions: Tetranychus urticae, percent mortality, read-out: SM RESULTS %; for mortality at 400 ppm: rate 400 ppm
Procedure, shortened: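 Compounds dissolved in 50:50 acetone/alcohol containing sulfonate/nonionic emulsifier blends, then diluted with water to the indicated concentrations. Leaves sprayed on both surfaces to runoff at 10 psi and dried one hour. Percent mortality scored after standard exposure periods.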

[2] = tested on: Pyricularia oryzae (rice blast); test: whole plant or invertebrate; conditions: for RICE BLAST: disease control rating, foliar spray on rice, 400 ppm (+++ at 100 ppm); for pest or weed control at 400 ppm: Pyricularia oryzae, foliar, read-out: RICE BLAST, Test 1, foliar spray on rice, disease control rating at 400 ppm / 100 ppm
[3] = tested on: Puccinia recondita tritici (leaf rust); test: Test 1 greenhouse foliar spray screen, leaf rust on wheat; conditions: for LEAF RUST: disease control rating, foliar spray on wheat, 400 ppm (+++ at 100 ppm); for pest or weed control at 400 ppm: Puccinia recondita, foliar, Test 1, foliar spray on wheat, disease control rating at 400 ppm / 100 ppm
[4] = tested on: Pseudoperonospora cubensis (downy mildew); test: Test 1 greenhouse foliar spray screen, downy mildew on squash; conditions: for DOWN MDEW: disease control rating, foliar spray on squash, 400 ppm (+++ at 100 ppm); for pest or weed control at 400 ppm: Pseudoperonospora cubensis, foliar, Test 1, foliar spray on squash, disease control rating at 400 ppm / 100 ppm, read-out: DOWN MDEW
[5] = tested on: Botrytis cinerea (gray mold); test: Test 1 greenhouse foliar spray screen, gray mold on grape berries; conditions: for GRAY MOLD: disease control rating, spray on grape berries, 400 ppm (+++ at 100 ppm); for pest or weed control at 400 ppm: Botrytis cinerea, foliar, Test 1, spray on grape berries, disease control rating at 400 ppm / 100 ppm
[6] = tested on: southern armyworm (Spodopetra eridania Cramer); test: Mite/insect screen, SAW; conditions: Spodoptera eridania, percent mortality, read-out: SAW RESULTS %; for mortality at 400 ppm: rate 400 ppm
Procedure, shortened: (§1)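 Compounds dissolved in acetone/alcohol (50:50) with TOXIMUL R and S emulsifiers, diluted in water to test concentrations, and sprayed to runoff on both leaf surfaces at 10 psi, then dried 1 h. For armyworm, excised treated leaves were offered to larvae; percent mortality scored after standard exposure periods.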

corn rootworm = test: Mite/insect screen, CRW; conditions: percent mortality, read-out: CRW RESULTS %; for mortality at 24 ppm: CRW rate 24.00 ppm
Procedure, shortened: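 Compounds dissolved in 50:50 acetone/alcohol with TOXIMUL R and S emulsifiers (23 and 13 g/L), then diluted in water to the stated test concentrations. Percent mortality of corn rootworm scored after standard exposure periods.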

[7] = tested on: Erysiphe graminis tritici (powdery mildew); test: Test 1 greenhouse foliar spray screen, powdery mildew on wheat; conditions: for POWD MDEW: disease control rating, foliar spray on wheat, 400 ppm (+++ at 100 ppm); for pest or weed control at 400 ppm: Blumeria graminis, foliar, Test 1, foliar spray on wheat, disease control rating at 400 ppm / 100 ppm, read-out: POWD MDEW
[8] = tested on: Venturia inaequalis (apple scab); test: Test 1 greenhouse foliar spray screen, apple scab on apple seedling; conditions: disease control rating, foliar spray on apple seedling, 400 ppm (+++ at 100 ppm)
[9] = tested on: Septoria tritici (leaf blotch); test: Test 1 greenhouse foliar spray screen, leaf blotch on wheat; conditions: disease control rating, foliar spray on wheat, 400 ppm (+++ at 100 ppm)
[10] = tested on: melon aphids (Aphis gossypii Glover); test: Mite/insect screen, MA; conditions: Aphis gossypii, percent mortality, read-out: MA RESULTS %; for mortality at 400 ppm: rate 400 ppm
Procedure, shortened: as §1

[11] = foliar, rate 200 ppm, foliar spray on squash

SMILES | mortality at 200 ppm ([1]; SAW, SM & MA RATE 200 PPM) [%] | RICE BLAST [2] | LEAF RUST [3] | DOWN MDEW [4] | GRAY MOLD [5] | mortality at 200 ppm ([6]; SAW, SM & MA RATE 200 PPM) [%] | mortality at 12 ppm (corn rootworm; CRW RATE 12.00 PPM) [%] | POWD MDEW [7] | APPL SCAB [8] | LEAF BLOT [9] | mortality at 200 ppm ([10]; SAW, SM & MA RATE 200 PPM) [%] | mortality at 200 ppm [1, 11] [%] | mortality at 400 ppm ([1]; foliar, foliar spray on squash) [%] | pest or weed control at 400 ppm [2] [%] | pest or weed control at 400 ppm [3] [%] | pest or weed control at 400 ppm [4] [%] | pest or weed control at 400 ppm [5] [%] | mortality at 200 ppm [6, 11] [%] | mortality at 400 ppm ([6]; foliar, foliar spray on squash) [%] | mortality at 12 ppm (corn rootworm; CRW rate 12.00 ppm) [%] | further results
COc1ccc2nccc(NCCc3ccccc3)c2c1 [Example 1, 6-methoxy-N-(2-phenylethyl)-4-quinolineamine] | 0 | + (20-89% control at 400 ppm) | + (20-89% control at 400 ppm) | ++ (90-100% control at 400 ppm) | + (20-89% control at 400 ppm) | 0 | 0 | + (20-89% control at 400 ppm) | - (0-19% control at 400 ppm) | - (0-19% control at 400 ppm) | 0 | – | – | – | – | – | – | – | – | – | –
CCc1ccc2nccc(NCCc3ccccc3)c2c1 [Example 3, 6-ethyl-N-(2-phenylethyl)-4-quinolinamine] | 0 | ++ (90-100% control at 400 ppm) | + (20-89% control at 400 ppm) | +++ (90-100% control at 100 ppm) | - (0-19% control at 400 ppm) | 0 | 0 | - (0-19% control at 400 ppm) | - (0-19% control at 400 ppm) | - (0-19% control at 400 ppm) | 0 | – | – | – | – | – | – | – | – | – | –
CCN(CCc1ccccc1)c1ccnc2ccccc12 [Example 4, N-ethyl-N-(2-phenylethyl)-4-quinolinamine] | 0 | + (20-89% control at 400 ppm) | ++ (90-100% control at 400 ppm) | ++ (90-100% control at 400 ppm) | - (0-19% control at 400 ppm) | 0 | 0 | + (20-89% control at 400 ppm) | - (0-19% control at 400 ppm) | - (0-19% control at 400 ppm) | 0 | – | – | – | – | – | – | – | – | – | –
Cc1cc(NCCc2ccccc2)c2ccccc2n1 [Example 6, 2-methyl-N-(2-phenylethyl)-4-quinolinamine] | 0 | + (20-89% control at 400 ppm) | + (20-89% control at 400 ppm) | ++ (90-100% control at 400 ppm) | + (20-89% control at 400 ppm) | 0 | 0 | ++ (90-100% control at 400 ppm) | - (0-19% control at 400 ppm) | - (0-19% control at 400 ppm) | 0 | – | – | – | – | – | – | – | – | – | –
FC(F)(F)c1ccc2c(NCCc3ccccc3)ccnc2c1 [Example 17, N-(2-phenylethyl)-7-(trifluoromethyl)-4-quinolinamine] | 0 | + (20-89% control at 400 ppm) | ++ (90-100% control at 400 ppm) | ++ (90-100% control at 400 ppm) | - (0-19% control at 400 ppm) | 0 | 0 | ++ (90-100% control at 400 ppm) | - (0-19% control at 400 ppm) | - (0-19% control at 400 ppm) | 0 | – | – | – | – | – | – | – | – | – | –
Brc1ccc(CCNc2ccnc3ccccc23)cc1 [Example 18, N-[2-(4-bromophenyl)ethyl]-4-quinolinamine] | 0 | ++ (90-100% control at 400 ppm) | ++ (90-100% control at 400 ppm) | ++ (90-100% control at 400 ppm) | + (20-89% control at 400 ppm) | 0 | 0 | + (20-89% control at 400 ppm) | - (0-19% control at 400 ppm) | - (0-19% control at 400 ppm) | 0 | – | – | – | – | – | – | – | – | – | –
COc1ccc2nc(C)cc(NCCc3cccc(Oc4ccccc4)c3)c2c1 [Example 290, 6-methoxy-2-methyl-N-[2-(3-phenoxyphenyl)ethyl]-4-quinolinamine] | – | – | – | – | – | – | – | – | – | – | – | 80 | 0 | 90 to 100 | 20 to 89 | 90 to 100 | 0 to 19 | 0 | 0 | 0 | mortality at 24 ppm (corn rootworm): 0%; pest or weed control at 400 ppm [7]: 0 to 19%; mortality at 200 ppm [10, 11]: 80%; mortality at 400 ppm ([10]; foliar, foliar spray on squash): 0%
Fc1cccc2c(NCCc3ccc(OCc4ccccc4)cc3)ccnc12 [Example 291, 8-fluoro-N-[2-[4-(phenylmethoxy)phenyl]ethyl]-4-quinolinamine] | – | – | – | – | – | – | – | – | – | – | – | 0 | 0 | 90 to 100 | 90 to 100 | 90 to 100 | 0 to 19 | 0 | 0 | 0 | mortality at 24 ppm (corn rootworm): 0%; pest or weed control at 400 ppm [7]: 90 to 100%; mortality at 200 ppm [10, 11]: 100%; mortality at 400 ppm ([10]; foliar, foliar spray on squash): 0%
Fc1ccc2c(OCCOc3ccc(Br)cc3)ccnc2c1 [Example 292, 7-fluoro-4-[2-(4-bromophenoxy)ethoxy]quinoline] | – | – | – | – | – | – | – | – | – | – | – | 0 | 0 | 0 to 19 | 0 to 19 | 0 to 19 | 0 to 19 | 0 | 0 | 0 | mortality at 24 ppm (corn rootworm): 0%; pest or weed control at 400 ppm [7]: 0 to 19%; mortality at 200 ppm [10, 11]: 30%; mortality at 400 ppm ([10]; foliar, foliar spray on squash): 0%
Oc1ccc(CCNc2ccnc3c(F)cccc23)cc1 [Example 293, N-[2-(4-hydroxyphenyl)ethyl]-8-fluoro-4-quinoline] | – | – | – | – | – | – | – | – | – | – | – | 0 | 0 | 0 to 19 | 90 to 100 | 0 to 19 | 0 to 19 | 0 | 0 | 0 | mortality at 24 ppm (corn rootworm): 0%; pest or weed control at 400 ppm [7]: 0 to 19%; mortality at 200 ppm [10, 11]: 0%; mortality at 400 ppm ([10]; foliar, foliar spray on squash): 0%
Fc1cccc2c(OCCCc3cccc(C(F)(F)F)c3)ccnc12 [Example 294, 8-fluoro-4-[3-[3-(trifluoromethyl)phenyl]propoxy]quinoline] | – | – | – | – | – | – | – | – | – | – | – | 0 | 0 | 0 to 19 | 0 to 19 | 0 to 19 | 0 to 19 | 0 | 0 | 0 | mortality at 24 ppm (corn rootworm): 0%; pest or weed control at 400 ppm [7]: 0 to 19%; mortality at 200 ppm [10, 11]: 0%; mortality at 400 ppm ([10]; foliar, foliar spray on squash): 0%
Fc1cccc2c(OC3CCCCC3c3ccccc3)ccnc12 (stereo not drawn) [Example 295, 8-fluoro-4-(2-phenylcyclohexyloxy)quinoline] | – | – | – | – | – | – | – | – | – | – | – | 0 | 0 | 20 to 89 | 20 to 89 | 90 to 100 | 0 to 19 | 0 | 0 | 0 | mortality at 24 ppm (corn rootworm): 0%; pest or weed control at 400 ppm [7]: 20 to 89%; mortality at 200 ppm [10, 11]: 0%; mortality at 400 ppm ([10]; foliar, foliar spray on squash): 0%
